Measured values from patent publication US10266537B2, “3-acetylenyl-pyrazole-pyrimidine derivative, and preparation method therefor and uses thereof” (Si Chuan University, priority 2015, dated 2019).

Columns and labels:
FGFR2 = FGFR2 (Homo sapiens (Human), UniProt P21802); experiment: Kinase inhibition assay (KinaseProfiler, 33P-ATP); format: biochemical
Mer = Mer (Homo sapiens (Human), UniProt Q12866); experiment: Kinase inhibition assay (KinaseProfiler, 33P-ATP); format: biochemical; details: Mer(h), read-out: The percentage of the remaining active protein
EphA5 = EphA5 (Homo sapiens (Human), UniProt P54756); experiment: Kinase inhibition assay (KinaseProfiler, 33P-ATP); format: biochemical; details: EphA5(h), read-out: The percentage of the remaining active protein
EphB1 = EphB1 (Homo sapiens (Human), UniProt P54762); experiment: Kinase inhibition assay (KinaseProfiler, 33P-ATP); format: biochemical; details: EphB1(h), read-out: The percentage of the remaining active protein
Fgr = Fgr (Homo sapiens (Human), UniProt P09769); experiment: Kinase inhibition assay (KinaseProfiler, 33P-ATP); format: biochemical; details: Fgr(h), read-out: The percentage of the remaining active protein
JAK1 = JAK1 (Homo sapiens (Human), UniProt P23458); experiment: Kinase inhibition assay (KinaseProfiler, 33P-ATP); format: biochemical; details: JAK1(h), read-out: The percentage of the remaining active protein
TAO2 = TAO2 (Homo sapiens (Human), UniProt Q9UL54); experiment: Kinase inhibition assay (KinaseProfiler, 33P-ATP); format: biochemical; details: TAO2(h), read-out: The percentage of the remaining active protein
PANC-1 = experiment: Cell proliferation inhibition assay (MTT); format: cell-based; details: Homo sapiens, 72 hours, read-out: Proliferation inhibitory activity IC50
DU145 = experiment: Cell proliferation inhibition assay (MTT); format: cell-based; details: Homo sapiens, DU-145, 72 hours, read-out: Proliferation inhibitory activity IC50
BrSK2(h) = BrSK2(h) (Homo sapiens (Human), UniProt Q8IWQ3); experiment: Kinase inhibition assay (KinaseProfiler, 33P-ATP); format: biochemical; details: read-out: The percentage of the remaining active protein
CaMKIδ(h) = CaMKIδ(h) (Homo sapiens (Human), UniProt Q8IU85); experiment: Kinase inhibition assay (KinaseProfiler, 33P-ATP); format: biochemical; details: read-out: The percentage of the remaining active protein
CDK2/cyclinE(h) = CDK2/cyclinE(h) (Homo sapiens (Human), UniProt P24941); experiment: Kinase inhibition assay (KinaseProfiler, 33P-ATP); format: biochemical; details: read-out: The percentage of the remaining active protein
CK1γ1(h) = CK1γ1(h) (Homo sapiens (Human), UniProt Q9HCP0); experiment: Kinase inhibition assay (KinaseProfiler, 33P-ATP); format: biochemical; details: read-out: The percentage of the remaining active protein
CK2(h) = CK2(h) (Homo sapiens (Human), UniProt P68400); experiment: Kinase inhibition assay (KinaseProfiler, 33P-ATP); format: biochemical; details: read-out: The percentage of the remaining active protein
DMPK(h) = DMPK(h) (Homo sapiens (Human), UniProt Q09013); experiment: Kinase inhibition assay (KinaseProfiler, 33P-ATP); format: biochemical; details: read-out: The percentage of the remaining active protein
Fes(h) = Fes(h) (Homo sapiens (Human), UniProt P07332); experiment: Kinase inhibition assay (KinaseProfiler, 33P-ATP); format: biochemical; details: read-out: The percentage of the remaining active protein
FGFR2(N549H)(h) = FGFR2(N549H)(h) (Homo sapiens (Human), UniProt P21802, N549H); experiment: Kinase inhibition assay (KinaseProfiler, 33P-ATP); format: biochemical; details: read-out: The percentage of the remaining active protein
Fms(Y969C)(h) = Fms(Y969C)(h) (Homo sapiens (Human), UniProt P07333, Y969C); experiment: Kinase inhibition assay (KinaseProfiler, 33P-ATP); format: biochemical; details: read-out: The percentage of the remaining active protein
IGF-1R(h), activated = IGF-1R(h), activated (Homo sapiens (Human), UniProt P08069); experiment: Kinase inhibition assay (KinaseProfiler, 33P-ATP); format: biochemical; details: read-out: The percentage of the remaining active protein
IKKε(h) = IKKε(h) (Homo sapiens (Human), UniProt Q14164); experiment: Kinase inhibition assay (KinaseProfiler, 33P-ATP); format: biochemical; details: read-out: The percentage of the remaining active protein
Lyn(m) = Lyn(m) (Mus musculus (Mouse), UniProt P25911); experiment: Kinase inhibition assay (KinaseProfiler, 33P-ATP); format: biochemical; details: read-out: The percentage of the remaining active protein
LRRK2(h) = LRRK2(h) (Homo sapiens (Human), UniProt Q5S007); experiment: Kinase inhibition assay (KinaseProfiler, 33P-ATP); format: biochemical; details: read-out: The percentage of the remaining active protein
Met(Y1248H)(h) = Met(Y1248H)(h) (Homo sapiens (Human), UniProt P08581, Y1248H); experiment: Kinase inhibition assay (KinaseProfiler, 33P-ATP); format: biochemical; details: read-out: The percentage of the remaining active protein
PEK(h) = PEK(h) (Homo sapiens (Human), UniProt Q9NZJ5); experiment: Kinase inhibition assay (KinaseProfiler, 33P-ATP); format: biochemical; details: read-out: The percentage of the remaining active protein
PhKγ2(h) = PhKγ2(h) (Homo sapiens (Human), UniProt P15735); experiment: Kinase inhibition assay (KinaseProfiler, 33P-ATP); format: biochemical; details: read-out: The percentage of the remaining active protein
Rsk1(h) = Rsk1(h) (Homo sapiens (Human), UniProt Q15418); experiment: Kinase inhibition assay (KinaseProfiler, 33P-ATP); format: biochemical; details: read-out: The percentage of the remaining active protein
SAPK2a(T106M)(h) = SAPK2a(T106M)(h) (Homo sapiens (Human), UniProt Q16539, T106M); experiment: Kinase inhibition assay (KinaseProfiler, 33P-ATP); format: biochemical; details: read-out: The percentage of the remaining active protein
SAPK3(h) = SAPK3(h) (Homo sapiens (Human), UniProt P53778); experiment: Kinase inhibition assay (KinaseProfiler, 33P-ATP); format: biochemical; details: read-out: The percentage of the remaining active protein
SAPK4(h) = SAPK4(h) (Homo sapiens (Human), UniProt O15264); experiment: Kinase inhibition assay (KinaseProfiler, 33P-ATP); format: biochemical; details: read-out: The percentage of the remaining active protein
SGK3(h) = SGK3(h) (Homo sapiens (Human), UniProt Q96BR1); experiment: Kinase inhibition assay (KinaseProfiler, 33P-ATP); format: biochemical; details: read-out: The percentage of the remaining active protein
TrkC(h) = TrkC(h) (Homo sapiens (Human), UniProt Q16288); experiment: Kinase inhibition assay (KinaseProfiler, 33P-ATP); format: biochemical; details: read-out: The percentage of the remaining active protein
Wee1(h) = Wee1(h) (Homo sapiens (Human), UniProt P30291); experiment: Kinase inhibition assay (KinaseProfiler, 33P-ATP); format: biochemical; details: read-out: The percentage of the remaining active protein
[1] = target: PI3 Kinase (p110a/p65a)(m) (Mus musculus (Mouse), UniProt P42337); experiment: Kinase inhibition assay (KinaseProfiler, 33P-ATP); format: biochemical; details: read-out: The percentage of the remaining active protein
PI3KC2a(h) = PI3KC2a(h) (Homo sapiens (Human), UniProt O00443); experiment: Kinase inhibition assay (KinaseProfiler, 33P-ATP); format: biochemical; details: read-out: The percentage of the remaining active protein
PIP4K2a(h) = PIP4K2a(h) (Homo sapiens (Human), UniProt P48426); experiment: Kinase inhibition assay (KinaseProfiler, 33P-ATP); format: biochemical; details: read-out: The percentage of the remaining active protein

Sequence of FGFR2 (P21802 22-821): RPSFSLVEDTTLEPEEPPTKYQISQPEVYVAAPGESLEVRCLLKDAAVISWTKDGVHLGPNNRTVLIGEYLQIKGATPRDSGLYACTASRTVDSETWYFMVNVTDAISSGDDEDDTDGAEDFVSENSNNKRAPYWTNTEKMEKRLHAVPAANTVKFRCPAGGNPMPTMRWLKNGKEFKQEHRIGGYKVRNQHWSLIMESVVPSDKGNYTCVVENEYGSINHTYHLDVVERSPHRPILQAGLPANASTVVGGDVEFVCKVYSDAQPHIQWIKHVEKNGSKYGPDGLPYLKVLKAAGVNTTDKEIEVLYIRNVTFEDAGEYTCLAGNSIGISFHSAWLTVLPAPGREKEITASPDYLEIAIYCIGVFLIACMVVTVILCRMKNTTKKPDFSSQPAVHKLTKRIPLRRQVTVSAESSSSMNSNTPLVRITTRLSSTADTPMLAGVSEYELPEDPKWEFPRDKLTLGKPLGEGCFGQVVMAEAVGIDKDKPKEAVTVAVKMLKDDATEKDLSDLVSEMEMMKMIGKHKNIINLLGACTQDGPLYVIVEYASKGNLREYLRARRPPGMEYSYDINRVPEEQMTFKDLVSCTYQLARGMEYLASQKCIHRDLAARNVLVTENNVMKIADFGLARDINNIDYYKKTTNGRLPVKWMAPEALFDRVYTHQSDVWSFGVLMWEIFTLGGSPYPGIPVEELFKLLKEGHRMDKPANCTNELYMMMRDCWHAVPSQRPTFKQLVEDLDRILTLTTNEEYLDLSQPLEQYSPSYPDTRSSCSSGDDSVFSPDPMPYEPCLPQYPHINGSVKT
Sequence of SAPK4(h) (O15264 whole entry): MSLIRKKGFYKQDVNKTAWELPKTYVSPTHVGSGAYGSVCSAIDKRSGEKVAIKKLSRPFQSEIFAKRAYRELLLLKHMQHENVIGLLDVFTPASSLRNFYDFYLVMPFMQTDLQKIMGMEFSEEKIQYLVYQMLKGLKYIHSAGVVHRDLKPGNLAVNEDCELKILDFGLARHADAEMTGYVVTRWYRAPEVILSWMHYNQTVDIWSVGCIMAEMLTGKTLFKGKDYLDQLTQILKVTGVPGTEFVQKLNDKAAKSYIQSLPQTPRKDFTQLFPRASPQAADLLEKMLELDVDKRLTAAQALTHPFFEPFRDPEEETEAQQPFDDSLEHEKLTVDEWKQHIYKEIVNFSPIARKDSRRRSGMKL
Sequence of SAPK3(h) (P53778 whole entry): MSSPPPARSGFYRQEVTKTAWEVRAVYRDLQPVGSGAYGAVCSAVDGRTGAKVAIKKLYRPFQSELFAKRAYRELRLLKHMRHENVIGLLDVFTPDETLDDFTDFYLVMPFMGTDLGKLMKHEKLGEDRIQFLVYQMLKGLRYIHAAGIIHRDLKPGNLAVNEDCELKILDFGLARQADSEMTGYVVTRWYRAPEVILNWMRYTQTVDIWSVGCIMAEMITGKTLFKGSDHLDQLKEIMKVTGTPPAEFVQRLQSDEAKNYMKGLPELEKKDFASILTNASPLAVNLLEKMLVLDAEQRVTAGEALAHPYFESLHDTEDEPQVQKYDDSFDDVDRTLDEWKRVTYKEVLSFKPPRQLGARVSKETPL
Sequence of Wee1(h) (P30291 whole entry): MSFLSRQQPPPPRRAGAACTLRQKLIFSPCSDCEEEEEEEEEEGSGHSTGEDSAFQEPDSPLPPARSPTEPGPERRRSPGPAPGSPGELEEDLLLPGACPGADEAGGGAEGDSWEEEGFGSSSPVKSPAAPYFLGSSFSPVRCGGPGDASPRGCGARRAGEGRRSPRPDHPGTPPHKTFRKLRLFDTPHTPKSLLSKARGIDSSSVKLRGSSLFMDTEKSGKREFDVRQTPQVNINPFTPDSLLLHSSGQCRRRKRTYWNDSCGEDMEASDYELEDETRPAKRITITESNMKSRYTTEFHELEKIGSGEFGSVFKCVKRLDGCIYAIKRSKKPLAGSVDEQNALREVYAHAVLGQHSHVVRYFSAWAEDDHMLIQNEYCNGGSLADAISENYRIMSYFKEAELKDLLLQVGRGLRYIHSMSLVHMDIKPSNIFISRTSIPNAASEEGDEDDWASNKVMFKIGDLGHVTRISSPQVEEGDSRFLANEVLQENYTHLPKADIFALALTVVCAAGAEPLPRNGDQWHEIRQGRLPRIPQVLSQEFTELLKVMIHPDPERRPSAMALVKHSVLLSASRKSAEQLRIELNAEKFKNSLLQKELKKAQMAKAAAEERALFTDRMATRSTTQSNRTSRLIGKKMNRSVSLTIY
Sequence of Fes(h) (P07332 whole entry): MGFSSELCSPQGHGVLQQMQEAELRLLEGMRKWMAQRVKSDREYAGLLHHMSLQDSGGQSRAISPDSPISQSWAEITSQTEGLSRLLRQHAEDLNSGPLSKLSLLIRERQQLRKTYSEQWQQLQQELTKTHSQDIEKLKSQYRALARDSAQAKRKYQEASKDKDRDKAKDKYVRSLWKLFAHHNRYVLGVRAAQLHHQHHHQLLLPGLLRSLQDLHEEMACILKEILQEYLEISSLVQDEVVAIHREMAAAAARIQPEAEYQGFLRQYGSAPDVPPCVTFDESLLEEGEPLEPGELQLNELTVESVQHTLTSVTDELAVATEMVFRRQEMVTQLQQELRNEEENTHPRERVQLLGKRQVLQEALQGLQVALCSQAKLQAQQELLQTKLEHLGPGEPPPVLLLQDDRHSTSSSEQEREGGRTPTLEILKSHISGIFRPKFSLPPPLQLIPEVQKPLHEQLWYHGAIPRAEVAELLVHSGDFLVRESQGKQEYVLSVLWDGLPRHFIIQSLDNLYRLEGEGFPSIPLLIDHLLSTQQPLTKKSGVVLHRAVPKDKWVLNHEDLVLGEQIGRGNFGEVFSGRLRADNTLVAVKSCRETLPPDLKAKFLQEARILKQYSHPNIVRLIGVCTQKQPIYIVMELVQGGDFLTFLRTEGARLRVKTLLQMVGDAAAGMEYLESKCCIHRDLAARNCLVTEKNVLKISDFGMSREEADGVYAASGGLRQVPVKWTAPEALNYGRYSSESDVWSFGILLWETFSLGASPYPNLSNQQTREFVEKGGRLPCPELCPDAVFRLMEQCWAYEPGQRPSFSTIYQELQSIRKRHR
Sequence of Fms(Y969C)(h) (P07333 20-972 Y969C): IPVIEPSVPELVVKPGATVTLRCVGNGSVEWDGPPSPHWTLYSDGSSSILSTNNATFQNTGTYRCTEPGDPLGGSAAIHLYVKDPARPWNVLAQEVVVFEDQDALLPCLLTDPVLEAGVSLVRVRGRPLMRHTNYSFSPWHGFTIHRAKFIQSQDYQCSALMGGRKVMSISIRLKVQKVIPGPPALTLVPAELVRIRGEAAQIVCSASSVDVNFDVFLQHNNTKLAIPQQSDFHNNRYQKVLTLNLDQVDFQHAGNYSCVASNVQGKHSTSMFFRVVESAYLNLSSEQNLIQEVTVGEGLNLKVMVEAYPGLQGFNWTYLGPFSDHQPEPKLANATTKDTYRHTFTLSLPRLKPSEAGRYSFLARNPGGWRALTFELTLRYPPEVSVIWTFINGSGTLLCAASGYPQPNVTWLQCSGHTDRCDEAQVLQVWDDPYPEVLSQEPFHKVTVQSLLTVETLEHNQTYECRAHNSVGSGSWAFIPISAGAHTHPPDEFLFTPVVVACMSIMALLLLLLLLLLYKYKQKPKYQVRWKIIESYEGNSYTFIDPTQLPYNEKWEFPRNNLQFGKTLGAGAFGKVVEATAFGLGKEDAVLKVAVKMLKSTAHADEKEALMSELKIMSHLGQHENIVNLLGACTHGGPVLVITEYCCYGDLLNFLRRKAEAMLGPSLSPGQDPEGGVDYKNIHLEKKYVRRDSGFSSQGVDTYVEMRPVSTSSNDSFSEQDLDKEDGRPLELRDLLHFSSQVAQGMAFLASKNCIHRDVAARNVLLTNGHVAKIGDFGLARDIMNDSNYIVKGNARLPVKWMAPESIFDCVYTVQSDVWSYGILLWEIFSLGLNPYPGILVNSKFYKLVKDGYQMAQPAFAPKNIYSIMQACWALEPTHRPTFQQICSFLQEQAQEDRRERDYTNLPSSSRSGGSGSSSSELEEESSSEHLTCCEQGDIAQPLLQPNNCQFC
Sequence of PEK(h) (Q9NZJ5 30-1116): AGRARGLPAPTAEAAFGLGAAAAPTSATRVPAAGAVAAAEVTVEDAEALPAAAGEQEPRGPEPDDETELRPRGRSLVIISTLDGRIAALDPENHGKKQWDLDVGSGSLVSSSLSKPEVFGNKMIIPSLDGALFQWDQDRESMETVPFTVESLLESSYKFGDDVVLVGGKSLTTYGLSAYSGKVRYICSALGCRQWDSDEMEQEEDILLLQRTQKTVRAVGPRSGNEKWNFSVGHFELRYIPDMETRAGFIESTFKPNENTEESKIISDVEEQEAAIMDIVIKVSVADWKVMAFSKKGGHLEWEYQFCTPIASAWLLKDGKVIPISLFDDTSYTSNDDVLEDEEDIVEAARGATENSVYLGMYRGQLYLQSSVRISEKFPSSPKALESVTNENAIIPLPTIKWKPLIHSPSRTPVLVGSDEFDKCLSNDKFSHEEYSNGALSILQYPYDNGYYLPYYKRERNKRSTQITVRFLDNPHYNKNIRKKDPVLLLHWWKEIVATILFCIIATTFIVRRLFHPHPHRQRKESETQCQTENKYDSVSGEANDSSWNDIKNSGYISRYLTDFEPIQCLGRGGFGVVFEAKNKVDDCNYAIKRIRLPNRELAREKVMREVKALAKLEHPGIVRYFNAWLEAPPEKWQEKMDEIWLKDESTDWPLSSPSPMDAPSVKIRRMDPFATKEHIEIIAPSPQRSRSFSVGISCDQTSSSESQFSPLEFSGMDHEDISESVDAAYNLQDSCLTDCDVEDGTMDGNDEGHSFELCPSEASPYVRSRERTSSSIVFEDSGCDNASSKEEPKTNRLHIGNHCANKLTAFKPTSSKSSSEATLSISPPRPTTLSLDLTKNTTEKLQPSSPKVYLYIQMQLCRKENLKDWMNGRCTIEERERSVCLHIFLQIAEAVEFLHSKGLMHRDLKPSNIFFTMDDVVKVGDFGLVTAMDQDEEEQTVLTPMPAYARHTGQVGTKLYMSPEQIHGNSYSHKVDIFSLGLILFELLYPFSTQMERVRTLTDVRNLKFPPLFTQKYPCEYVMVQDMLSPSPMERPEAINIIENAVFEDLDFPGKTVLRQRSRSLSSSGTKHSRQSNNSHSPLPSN

A remaining activity at 10 µM (FGFR2; FGFR2(h), 10 μM, read-out: The percentage of the remaining active protein) of 0%, an IC50 (FGFR2; FGFR2, ATP at Km) of 0.04 µM and a remaining activity at 10 µM (Mer) of 0% were found for `Cc1ccc(NC(=O)c2ccc(C)c(C(F)(F)F)c2)cc1C#Cc1nn([C@H]2CC[C@H](O)CC2)c2ncnc(N)c12` [Compound 93] in this work. It also gave a remaining activity at 10 µM (EphA5) of -1%, a remaining activity at 10 µM (EphB1) of -1% and a remaining activity at 10 µM (Fgr) of 2%. The remaining activity at 10 µM (JAK1) was 3%, the remaining activity at 10 µM (TAO2) was 5% and the IC50 (PANC-1) was 1.7 to 5 µM. The IC50 (DU145) was > 10 µM, the remaining activity at 10 µM (BrSK2(h)) was 93% and the remaining activity at 10 µM (CaMKIδ(h)) was 92%. For the same compound, the remaining activity at 10 µM (CDK2/cyclinE(h)) was 102%, the remaining activity at 10 µM (CK1γ1(h)) was 83% and the remaining activity at 10 µM (CK2(h)) was 105%. The remaining activity at 10 µM (DMPK(h)) was 91%, the remaining activity at 10 µM (Fes(h)) was 34% and the remaining activity at 10 µM (FGFR2(N549H)(h)) was -1%. For the same compound, the remaining activity at 10 µM (Fms(Y969C)(h)) was 13%, the remaining activity at 10 µM (IGF-1R(h), activated) was 91% and the remaining activity at 10 µM (IKKε(h)) was 94%. The remaining activity at 10 µM (Lyn(m)) was -1%, the remaining activity at 10 µM (LRRK2(h)) was 15% and the remaining activity at 10 µM (Met(Y1248H)(h)) was 123%. For the same compound, the remaining activity at 10 µM (PEK(h)) was 39%, the remaining activity at 10 µM (PhKγ2(h)) was 113% and the remaining activity at 10 µM (Rsk1(h)) was 11%. The remaining activity at 10 µM (SAPK2a(T106M)(h)) was 88%, the remaining activity at 10 µM (SAPK3(h)) was 68% and the remaining activity at 10 µM (SAPK4(h)) was 80%. It also gave a remaining activity at 10 µM (SGK3(h)) of 98%, a remaining activity at 10 µM (TrkC(h)) of 17% and a remaining activity at 10 µM (Wee1(h)) of 95%. For the same compound, the remaining activity at 10 µM [1] was 94%, the remaining activity at 10 µM (PI3KC2a(h)) was 92% and the remaining activity at 10 µM (PIP4K2a(h)) was 100%.
